For 3 molecules, EC50 and IC50 results are on record in patent US12606554B2, “Compounds and pharmaceutical compositions thereof for the treatment of diseases” (ONCO3R Therapeutics BV, priority 2019, dated 2026).

Test [1] relates to LPS-induced TNFα in monocyte-derived macrophages (MdM). In words: MdM assay: LPS-triggered TNFα (ELISA). It counts as cell-based. As to conditions: Homo sapiens, Macrophage, LPS 200 ng/mL, supernatant after 20 h. The protocol:
SIK inhibition inhibits TNFα and increases IL-10 release in LPS triggered monocyte-derived macrophages (MdM) and dendritic cells (MdDCs) (Clark et al. 2012; Sundberg et al. 2014; Ozanne et al. 2015). This assay evaluates illustrative compounds of the invention for their inhibition of LPS-induced TNFα and LPS triggered IL-10 secretion in monocyte-derived macrophages.
PBMCs are isolated from human blood samples (buffycoats). The buffy coat is aseptically transferred into a 50 mL Falcon tube, and diluted ½ in PBS. Falcon tubes are filled with 20 mL Lymphoprep™, on top of which 25 mL of the buffy coat is carefully added, tubes are centrifuged for 35 min at 400 g in temperature controlled centrifuge, without brake, at 25° C. PBMCs are aspirated from the white interface layer between sample and Lymphoprep™. PBMCs are washed five times in PBS. Cells are resuspended in RPMI 1640 complete medium supplemented with 10% FBS, 1% P/S, and cell density is determined using a hematologic analyzer (Sysmex XS-500i).
PBMCs are centrifuged at 300×g for 10 min and resuspended at a density of 1.0*10^7 cells/80 μL Miltenyi buffer (PBS, pH 7.4, 1% FBS, 2 mM EDTA).
Starting from this point of the protocol all steps are performed on ice. 20 μL of CD14+ micro-beads are added per 1.0*10^7 cells, the tube is mixed and incubated for 15 min in the fridge at 4° C. Cell suspension volume is adjusted to total volume of 100 mL using Miltenyi buffer, mixed gently and subsequently centrifuged for 10 min at 300×g. Supernatant is discarded and cell pellet is resuspended in 12 mL of Miltenyi buffer.
Four LS columns are placed in the MACS Separator (magnet) from Miltenyi Biotec, and are prewet by rinsing with 3 mL of MACS buffer per column. […]
The columns are removed from the magnets, and 5 mL of Miltenyi buffer are added to the column to flush out the CD14+ fraction by pushing the plunger into the column. […] The obtained cell pellet is resuspended in 10 mL RPMI w/o FBS, and cell density is determined using a hematologic analyser (Sysmex XS-500i). […]

Another test deals with T1, SIK3 (Homo sapiens, UniProt Q9Y2K2).
T1 construct: purchased SignalChem S12-11G-100
T1 sequence (Q9Y2K2 whole entry): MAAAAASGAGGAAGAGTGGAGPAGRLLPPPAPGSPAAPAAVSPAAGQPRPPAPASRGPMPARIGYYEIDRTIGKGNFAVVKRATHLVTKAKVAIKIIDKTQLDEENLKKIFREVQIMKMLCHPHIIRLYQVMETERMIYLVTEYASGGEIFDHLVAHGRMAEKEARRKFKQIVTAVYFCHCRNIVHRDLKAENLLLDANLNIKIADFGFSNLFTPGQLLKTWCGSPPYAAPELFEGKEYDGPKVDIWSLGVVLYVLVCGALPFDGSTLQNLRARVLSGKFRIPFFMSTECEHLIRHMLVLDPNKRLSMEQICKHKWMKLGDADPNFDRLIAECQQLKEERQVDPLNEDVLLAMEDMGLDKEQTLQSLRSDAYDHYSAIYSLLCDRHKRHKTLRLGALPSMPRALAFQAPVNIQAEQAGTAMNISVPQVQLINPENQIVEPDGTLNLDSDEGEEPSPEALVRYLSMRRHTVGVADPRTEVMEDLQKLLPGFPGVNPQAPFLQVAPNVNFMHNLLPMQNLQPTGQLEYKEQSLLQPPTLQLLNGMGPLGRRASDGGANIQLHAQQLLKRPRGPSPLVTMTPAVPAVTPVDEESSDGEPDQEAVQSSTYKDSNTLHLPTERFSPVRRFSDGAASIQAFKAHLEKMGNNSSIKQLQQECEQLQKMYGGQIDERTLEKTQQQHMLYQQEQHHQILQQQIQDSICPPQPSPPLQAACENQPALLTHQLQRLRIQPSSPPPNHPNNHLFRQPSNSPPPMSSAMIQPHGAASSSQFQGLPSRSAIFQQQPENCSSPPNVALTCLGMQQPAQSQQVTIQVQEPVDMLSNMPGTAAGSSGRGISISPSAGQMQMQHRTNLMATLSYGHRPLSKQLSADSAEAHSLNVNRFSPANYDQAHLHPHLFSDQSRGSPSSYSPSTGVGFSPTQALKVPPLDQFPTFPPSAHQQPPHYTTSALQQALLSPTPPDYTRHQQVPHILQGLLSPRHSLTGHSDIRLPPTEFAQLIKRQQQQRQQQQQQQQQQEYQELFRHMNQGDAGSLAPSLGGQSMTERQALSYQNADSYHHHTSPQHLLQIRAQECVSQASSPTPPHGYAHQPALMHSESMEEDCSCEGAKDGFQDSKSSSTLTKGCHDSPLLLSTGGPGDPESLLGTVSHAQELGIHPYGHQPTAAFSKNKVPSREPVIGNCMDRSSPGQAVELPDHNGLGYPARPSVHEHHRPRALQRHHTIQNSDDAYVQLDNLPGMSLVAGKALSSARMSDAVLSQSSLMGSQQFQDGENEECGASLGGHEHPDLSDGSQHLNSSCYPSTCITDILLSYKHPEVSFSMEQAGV
Kind of test: ADP-Glo kinase assay, SIK3. In kind it is biochemical. Conditions: AMARA peptide 45 μM, 5 μM ATP, 120 min. The text has this:
(§1) The ADP-Glo™ kinase assay is a luminescent technology assay which measures the ADP formed from a kinase reaction. In this specific study, the kinase reactions consisted of the phosphorylation of the AMARA peptide substrate (SignalChem, Cat #A11-58) by SIK1 (Carma Biosciences, Cat #02-131), SIK2 (ThermoFisher Scientific, Cat #PV4792) or SIK3 (SignalChem, Cat #S12-11G-100). In a second step the kinase reactions are terminated and all the remaining ATP is depleted. In a final step the ADP is converted into ATP and this newly synthesized ATP is measured by using a luciferase/luciferin reaction. The generated light is measured using an Envision plate reader, wherein the luminescent signal obtained positively correlates with the kinase activity.
(§2) The test compounds are prepared as a serial dilution of 10 point dose responses with ⅕ dilution steps in 100% DMSO starting from 2 mM highest concentration, diluted 1/20 in water and […] is transferred to the assay plates (PerkinElmer Inc., Cat #6007290).
(§3) 1% DMSO and 10 μM staurosporine final concentrations are used as negative and positive controls.
(§4) 2 μL enzyme-substrate mixture is added to the assay plates.
(§5) The reaction is started by adding 2 μL diluted ATP on the assay plates. Plates are centrifuged for a few seconds at 1000 rpm and gently shaken for 2 min followed by an incubation at RT for 120 min.
(§6) The reactions are stopped and the unconsumed ATP is depleted by adding 5 μL ADP-Glo Reagent (Promega, Cat #V9121B) to the reaction. The plates are centrifuged for a few seconds at 1000 rpm and incubated at RT for […] (ATP depletion).
(§7) The ADP is converted to ATP and luciferase and luciferin is introduced to detect ATP by adding 10 μL Kinase Detection Reagent (Promega, Cat #V913B+V914r) to the reaction. The plates are centrifuged for a few seconds at 1000 rpm and incubated at RT for 30 min (ADP detection).
(§8) Luminescence is measured on an Envision plate reader (PerkinElmer Inc.).
(§9) Raw data are generated following the read-out performed on the TopCount, plotted to generate dose response curves to calculate percentage inhibition (PIN) and average IC50 for each SIK homologue which are reported in the table below.
(ADP-Glo first removes unused ATP, then detects ADP through luciferase.)

The target of a further test is T2, SIK1 (Homo sapiens, UniProt P57059).
T2 construct: purchased Carna Biosciences 02-131
T2 sequence (P57059 whole entry): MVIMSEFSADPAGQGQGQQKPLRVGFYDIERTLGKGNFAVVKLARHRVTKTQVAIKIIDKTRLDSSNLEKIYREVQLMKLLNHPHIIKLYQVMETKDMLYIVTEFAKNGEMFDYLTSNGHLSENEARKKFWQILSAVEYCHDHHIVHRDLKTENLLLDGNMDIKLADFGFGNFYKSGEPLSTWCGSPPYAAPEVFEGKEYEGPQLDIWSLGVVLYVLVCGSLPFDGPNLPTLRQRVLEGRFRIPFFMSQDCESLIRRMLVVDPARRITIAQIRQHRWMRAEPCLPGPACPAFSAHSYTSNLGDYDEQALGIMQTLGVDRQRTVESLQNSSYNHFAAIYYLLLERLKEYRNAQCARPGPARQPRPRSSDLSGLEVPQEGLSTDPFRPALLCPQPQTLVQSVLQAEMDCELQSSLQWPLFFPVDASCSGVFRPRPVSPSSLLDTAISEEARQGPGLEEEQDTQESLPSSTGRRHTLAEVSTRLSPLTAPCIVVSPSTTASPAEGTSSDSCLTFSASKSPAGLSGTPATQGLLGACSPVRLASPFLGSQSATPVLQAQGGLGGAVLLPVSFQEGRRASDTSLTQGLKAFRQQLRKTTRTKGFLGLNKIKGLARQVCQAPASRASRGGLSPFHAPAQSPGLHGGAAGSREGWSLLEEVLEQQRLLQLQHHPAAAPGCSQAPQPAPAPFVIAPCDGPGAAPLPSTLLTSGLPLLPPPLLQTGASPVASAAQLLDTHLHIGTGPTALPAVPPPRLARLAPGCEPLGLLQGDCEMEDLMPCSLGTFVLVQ
Kind of test: ADP-Glo kinase assay, SIK1. As to conditions: AMARA peptide 45 μM, 5 μM ATP, 120 min, read-out: SIM1 IC50. In kind it is biochemical.
Source text: as §1, §2, §3, §4, §5, §6, §7, §8, §9

The target of the next test is T3, SIK2 (Homo sapiens, UniProt Q9H0K1).
T3 construct: purchased ThermoFisher Scientific PV4792
T3 sequence (Q9H0K1 whole entry): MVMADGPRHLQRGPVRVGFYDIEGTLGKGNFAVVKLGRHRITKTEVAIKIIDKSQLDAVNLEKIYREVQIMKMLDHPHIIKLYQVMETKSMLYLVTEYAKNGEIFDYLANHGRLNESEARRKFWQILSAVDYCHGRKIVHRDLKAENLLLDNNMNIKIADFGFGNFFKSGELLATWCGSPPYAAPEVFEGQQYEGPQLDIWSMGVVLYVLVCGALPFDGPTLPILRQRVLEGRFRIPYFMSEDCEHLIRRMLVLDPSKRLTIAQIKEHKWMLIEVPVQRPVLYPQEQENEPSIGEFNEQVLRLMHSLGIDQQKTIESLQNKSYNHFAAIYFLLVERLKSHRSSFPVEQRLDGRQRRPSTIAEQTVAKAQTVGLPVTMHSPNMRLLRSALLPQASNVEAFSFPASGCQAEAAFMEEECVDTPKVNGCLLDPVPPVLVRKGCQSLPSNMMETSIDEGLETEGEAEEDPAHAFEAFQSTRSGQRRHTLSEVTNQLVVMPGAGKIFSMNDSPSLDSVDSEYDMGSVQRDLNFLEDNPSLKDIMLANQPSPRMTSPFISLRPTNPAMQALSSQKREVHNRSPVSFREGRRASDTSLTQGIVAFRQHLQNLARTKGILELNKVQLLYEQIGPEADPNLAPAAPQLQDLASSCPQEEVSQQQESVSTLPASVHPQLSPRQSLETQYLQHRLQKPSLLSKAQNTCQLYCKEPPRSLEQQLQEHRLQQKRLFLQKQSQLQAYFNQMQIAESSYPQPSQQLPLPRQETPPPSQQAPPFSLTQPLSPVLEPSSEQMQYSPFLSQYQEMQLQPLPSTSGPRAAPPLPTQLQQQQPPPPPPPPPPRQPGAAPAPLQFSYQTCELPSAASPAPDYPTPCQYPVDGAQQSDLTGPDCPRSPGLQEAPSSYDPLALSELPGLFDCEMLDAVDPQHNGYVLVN
In words: ADP-Glo kinase assay, SIK2. It counts as biochemical. As to conditions: AMARA peptide 45 μM, 5 μM ATP, 120 min.
Source text: as §1, §2, §3, §4, §5, §6, §7, §8, §9

In test [1], `COc1cc(-c2cnn3cc(OC(C)(C)CO)ccc23)cc(OC(F)F)c1C(=O)N[C@@H]1C[C@@H]1F` [Cpd 2, 2-(difluoromethoxy)-N-[(1R,2S)-2-fluorocyclopropyl]-4-[6-(2-hydroxy-1,1-dimethyl-ethoxy)pyrazolo[1,5-a]pyridin-3-yl]-6-methoxy-benzamide] gave an EC50 of 100 to 1000 nM. The IC50 against SIK3 was 0.01 to 10 nM; on SIK1 it was more than 500 nM; at SIK2, 100 to 500 nM.
In the same order, the values of `COc1cc(-c2cnn3cc(OC(C)(C)CN4CCOCC4)ccc23)cc(OC(F)F)c1C(=O)N[C@@H]1C[C@@H]1F` [Cpd 3, 2-(difluoromethoxy)-4-[6-(1,1-dimethyl-2-morpholino-ethoxy)pyrazolo[1,5-a]pyridin-3-yl]-N-[(1R,2S)-2-fluorocyclopropyl]-6-methoxy-benzamide] are 100 to 1000 nM, 10 to 100 nM, more than 500 nM and 100 to 500 nM.
In turn, `COc1cc(-c2cnn3cc(OCCN4CCOCC4)ccc23)cc2c1C(=O)N(CC(F)(F)F)CC2` [Cpd 1, 8-methoxy-6-[6-(2-morpholinoethoxy)pyrazolo[1,5-a]pyridin-3-yl]-2-(2,2,2-trifluoroethyl)-3,4-dihydroisoquinolin-1-one] displayed an EC50 in test [1] of 100 to 1000 nM. Further, the IC50 at SIK3 was 0.01 to 10 nM; on SIK1, 100 to 500 nM; against SIK2, 0.01 to 10 nM.

As a reminder, the EC50 is the concentration giving half of the maximal effect. Higher therefore signals a need for much substance. Usually IC50 stands for the point on the concentration scale where inhibition reaches its midpoint.
